Measured values from BigSolDB 2.1.

Conditions: in ethylbenzene

CCCCCCCCCCCCCCCCCCCC
solubility (mole fraction) (266.52 K): 0.00955 | solubility (mole fraction) (270.33 K): 0.0149 | solubility (mole fraction) (272.73 K): 0.0195 | solubility (mole fraction) (275.75 K): 0.0265 | solubility (mole fraction) (278.21 K): 0.0364 | solubility (mole fraction) (281.94 K): 0.0536 | solubility (mole fraction) (282.8 K): 0.0614 | solubility (mole fraction) (284.97 K): 0.0791 | solubility (mole fraction) (286.15 K): 0.0904 | solubility (mole fraction) (287.19 K): 0.104 | solubility (mole fraction) (288.25 K): 0.116 | solubility (mole fraction) (289.67 K): 0.136 | solubility (mole fraction) (290.53 K): 0.151 | solubility (mole fraction) (291.27 K): 0.164 | solubility (mole fraction) (292.34 K): 0.179 | solubility (mole fraction) (292.97 K): 0.191 | solubility (mole fraction) (293.9 K): 0.204

CCCCCCCCCCCCCCCCCCCCCCC
solubility (mole fraction) (271.13 K): 0.00366 | solubility (mole fraction) (280.09 K): 0.0136 | solubility (mole fraction) (285.88 K): 0.0295 | solubility (mole fraction) (288.62 K): 0.0415 | solubility (mole fraction) (292.61 K): 0.0698 | solubility (mole fraction) (295.02 K): 0.094 | solubility (mole fraction) (297.34 K): 0.124 | solubility (mole fraction) (298.77 K): 0.147 | solubility (mole fraction) (300.52 K): 0.173 | solubility (mole fraction) (300.9 K): 0.184

CCCCCCCCCCCCCCCCCCCCC
solubility (mole fraction) (262.5 K): 0.0047 | solubility (mole fraction) (268.03 K): 0.01 | solubility (mole fraction) (275.53 K): 0.026 | solubility (mole fraction) (278.56 K): 0.0366 | solubility (mole fraction) (281.9 K): 0.0549 | solubility (mole fraction) (284.95 K): 0.0739 | solubility (mole fraction) (286.6 K): 0.095 | solubility (mole fraction) (288.45 K): 0.115 | solubility (mole fraction) (290 K): 0.14 | solubility (mole fraction) (291.15 K): 0.164 | solubility (mole fraction) (293.16 K): 0.201 | solubility (mole fraction) (294.57 K): 0.235 | solubility (mole fraction) (295.72 K): 0.263

CCCCCCCCCCCCCCCCCCCCCC
solubility (mole fraction) (268.67 K): 0.00443 | solubility (mole fraction) (274.22 K): 0.00854 | solubility (mole fraction) (277.47 K): 0.0123 | solubility (mole fraction) (281.39 K): 0.0202 | solubility (mole fraction) (284.43 K): 0.0294 | solubility (mole fraction) (286.56 K): 0.0381 | solubility (mole fraction) (289.51 K): 0.0539 | solubility (mole fraction) (291.7 K): 0.0702 | solubility (mole fraction) (293.53 K): 0.0865 | solubility (mole fraction) (295.46 K): 0.107 | solubility (mole fraction) (296.91 K): 0.127 | solubility (mole fraction) (297.87 K): 0.143 | solubility (mole fraction) (298.81 K): 0.256 | solubility (mole fraction) (299.86 K): 0.171 | solubility (mole fraction) (300.54 K): 0.186 | solubility (mole fraction) (301.25 K): 0.198 | solubility (mole fraction) (302.03 K): 0.213 | solubility (mole fraction) (302.44 K): 0.226

CCCCCCCCCCCCCCCCCCCCCCCC
solubility (mole fraction) (272.02 K): 0.00269 | solubility (mole fraction) (279.76 K): 0.00689 | solubility (mole fraction) (285.62 K): 0.0142 | solubility (mole fraction) (289.1 K): 0.0224 | solubility (mole fraction) (292.74 K): 0.0346 | solubility (mole fraction) (296 K): 0.0511 | solubility (mole fraction) (299.02 K): 0.0732 | solubility (mole fraction) (301.52 K): 0.0997 | solubility (mole fraction) (303.08 K): 0.117 | solubility (mole fraction) (304.88 K): 0.144 | solubility (mole fraction) (306.15 K): 0.163
